Assay results: ChEMBL document CHEMBL1122817, “Synthesis and biological activity of substituted [[3(S)-(acylamino)-2-oxo-1-azetidinyl]oxy]acetic acids. A new class of heteroatom-activated beta-lactam antibiotics” (1985)

Tests used:
[1] = tested on: Escherichia coli; assay: Inhibitory activity against Escherichia coli X161 at 1 mg/mL concentration using Agar disk plate assay; format: functional
[2] = tested on: Escherichia coli; assay: Inhibitory activity against Escherichia coli X161M at 1 mg/mL concentration using Agar disk plate assay; format: functional
[3] = tested on: Escherichia coli; assay: Inhibitory activity against Escherichia coli X580 at 1 mg/mL concentration using Agar disk plate assay; format: functional
[4] = tested on: Salmonella enterica subsp. enterica serovar Gallinarum; assay: Inhibitory activity against Salmonella gallinarum X142 at 1 mg/mL concentration using Agar disk plate assay; format: functional
[5] = tested on: Proteus vulgaris; assay: Inhibitory activity against Proteus vulgaris X45 at 1 mg/mL concentration using Agar disk plate assay; format: functional
[6] = tested on: Serratia marcescens; assay: Inhibitory activity against Serratia marcescens X99 at 1 mg/mL concentration using Agar disk plate assay; format: functional
[7] = tested on: Bacillus subtilis; assay: Inhibitory activity against Bacillus Subtilis X12 at 10 mg/mL concentration using Agar disk plate assay; format: functional
[8] = tested on: Escherichia coli; assay: Minimum inhibitory concentration against Escherichia coli N10; format: functional
[9] = tested on: Haemophilus influenzae; assay: Minimum inhibitory concentration against Haemophilus influenza 76; format: functional
[10] = tested on: Proteus vulgaris; assay: Inhibitory activity against Proteus vulgaris X45 at 10 mg/mL concentration using Agar disk plate assay; format: functional
[11] = tested on: Serratia marcescens; assay: Minimum inhibitory concentration against Serratia marcescens X99; format: functional
[12] = tested on: Escherichia coli; assay: Inhibitory activity against Escherichia coli X161 at 10 mg/mL concentration using Agar disk plate assay; format: functional
[13] = tested on: Bacillus subtilis; assay: Inhibitory activity against Bacillus Subtilis X12M at 10 mg/mL concentration using Agar disk plate assay; format: functional
[14] = tested on: Morganella morganii; assay: Minimum inhibitory concentration against Proteus morganii PR15; format: functional
[15] = tested on: Proteus inconstans; assay: Minimum inhibitory concentration against Proteus inconstans PR33; format: functional; details: Providencia alcalifaciens
[16] = tested on: Streptococcus pyogenes; assay: Minimum inhibitory concentration against Streptococcus pyogenes C203; format: functional
[17] = tested on: Streptococcus pneumoniae; assay: Minimum inhibitory concentration against Streptococcus pneumoniae Park I; format: functional
[18] = tested on: Escherichia coli; assay: Inhibitory activity against Escherichia coli X580 at 10 mg/mL concentration using Agar disk plate assay; format: functional
[19] = tested on: Micrococcus luteus; assay: Inhibitory activity against Sarcina lutea X186 at 1 mg/mL concentration using Agar disk plate assay; format: functional
[20] = tested on: Klebsiella pneumoniae; assay: Minimum inhibitory concentration against Klebsiella pneumoniae KAE; format: functional
[21] = tested on: Klebsiella pneumoniae; assay: Minimum inhibitory concentration against Klebsiella pneumoniae X68; format: functional
[22] = tested on: Klebsiella aerogenes; assay: Minimum inhibitory concentration against Enterobacter aerogenes EB 17; format: functional
[23] = tested on: Escherichia coli; assay: Minimum inhibitory concentration against Escherichia coli TEM; format: functional
[24] = tested on: Enterobacter cloacae; assay: Minimum inhibitory concentration against Enterobacter cloacae 265A; format: functional
[25] = tested on: Providencia rettgeri; assay: Minimum inhibitory concentration against Proteus rettgeri C24; format: functional
[26] = tested on: Pseudomonas aeruginosa; assay: Minimum inhibitory concentration against Pseudomonas aeruginosa (4 strains); format: functional
[27] = tested on: Ralstonia solanacearum; assay: Inhibitory activity against Pseudomonas solanacearum X185 at 10 mg/mL concentration using Agar disk plate assay; format: functional
[28] = tested on: Pseudomonas aeruginosa; assay: Inhibitory activity against Pseudomonas aeruginosa X48 at 10 mg/mL concentration using Agar disk plate assay; format: functional
[29] = tested on: Micrococcus luteus; assay: Inhibitory activity against Sarcina lutea X186 at 10 mg/mL concentration using Agar disk plate assay; format: functional
[30] = tested on: Serratia marcescens; assay: Inhibitory activity against Serratia marcescens X99 at 10 mg/mL concentration using Agar disk plate assay; format: functional
[31] = tested on: Serratia marcescens; assay: Minimum inhibitory concentration against Serratia marcescens SE3; format: functional
[32] = tested on: Bacillus subtilis; assay: Inhibitory activity against Bacillus Subtilis X12 at 1 mg/mL concentration using Agar disk plate assay; format: functional
[33] = tested on: Klebsiella aerogenes; assay: Minimum inhibitory concentration against Enterobacter aerogenes C32; format: functional
[34] = tested on: Citrobacter freundii; assay: Minimum inhibitory concentration against Citrobacter freundii CF17; format: functional
[35] = tested on: Escherichia coli; assay: Minimum inhibitory concentration against Escherichia coli EC14; format: functional
[36] = tested on: Acinetobacter calcoaceticus; assay: Minimum inhibitory concentration against Acinetobacter calcoaceticus AC12; format: functional
[37] = tested on: Enterobacter cloacae; assay: Minimum inhibitory concentration against Enterobacter cloacae EB5; format: functional
[38] = tested on: Streptococcus; assay: Minimum inhibitory concentration against Streptococcus sp. Group D (2 strains); format: functional
[39] = tested on: Salmonella typhi; assay: Minimum inhibitory concentration against Salmonella typhi X514; format: functional, Salmonella enterica subsp. enterica serovar Typhi; details: Salmonella enterica
[40] = tested on: Bacillus subtilis; assay: Inhibitory activity against Bacillus Subtilis X12M at 1 mg/mL concentration using Agar disk plate assay; format: functional
[41] = tested on: Staphylococcus epidermidis; assay: Minimum inhibitory concentration against Staphylococcus epidermidis (2 strains); format: functional
[42] = tested on: Klebsiella pneumoniae; assay: Minimum inhibitory concentration against Klebsiella pneumoniae X26; format: functional
[43] = tested on: Escherichia coli; assay: Inhibitory activity against Escherichia coli X161M at 10 mg/mL concentration using Agar disk plate assay; format: functional
[44] = tested on: Ralstonia solanacearum; assay: Inhibitory activity against Pseudomonas solanacearum X185 at 1 mg/mL concentration using Agar disk plate assay; format: functional
[45] = tested on: Staphylococcus aureus; assay: Inhibitory activity against Staphylococcus aureus X1 at 10 mg/mL concentration using Agar disk plate assay; format: functional
[46] = tested on: Staphylococcus aureus; assay: Minimum inhibitory concentration against Staphylococcus aureus (4 strains); format: functional
[47] = tested on: Geobacillus stearothermophilus; assay: Inhibitory activity against Bacillus Stearothermophilus C451 at 10 mg/mL concentration using Agar disk plate assay; format: functional
[48] = tested on: Haemophilus influenzae; assay: Minimum inhibitory concentration against Haemophilus influenza C.L; format: functional
[49] = tested on: Geobacillus stearothermophilus; assay: Inhibitory activity against Bacillus Stearothermophilus C451 at 1 mg/mL concentration using Agar disk plate assay; format: functional
[50] = tested on: Salmonella typhi; assay: Minimum inhibitory concentration against Salmonella typhi 1335; format: functional, Salmonella enterica subsp. enterica serovar Typhi; details: Salmonella enterica
[51] = tested on: Salmonella enterica subsp. enterica serovar Gallinarum; assay: Inhibitory activity against Salmonella gallinarum X142 at 10 mg/mL concentration using Agar disk plate assay; format: functional

Which results are given for `CO/N=C(/C(=O)N[C@@H]1C(=O)N(O[C@H](OC(C)=O)C(=O)[O-])[C@H]1C)c1csc(N)n1.[K+]`?
Zone of inhibition [1]: 26 mm; Zone of inhibition [2]: 28 mm; Zone of inhibition [3]: 38 mm; Zone of inhibition [4]: 17 mm; Zone of inhibition [5]: 25 mm; Zone of inhibition [6]: 18 mm

Which Zone of inhibition [1] does the source give for `CO/N=C(\C(=O)N[C@@H]1C(=O)N(O[C@H](OC(C)=O)C(=O)[O-])[C@H]1C)c1csc(N)n1.[K+]` here?
Its Zone of inhibition is 17 mm.

And the Zone of inhibition [2]?
Its Zone of inhibition is 30 mm.

What about the Zone of inhibition [3] of the same molecule?
Its Zone of inhibition is 46 mm.

What about the Zone of inhibition [4] of the same molecule?
Its Zone of inhibition is 25 mm.

What about the Zone of inhibition [5] of the same molecule?
Its Zone of inhibition is 28 mm.

What about the Zone of inhibition [6] of the same molecule?
The Zone of inhibition was 24 mm.

With `CO/N=C(/C(=O)N[C@@H]1C(=O)N(S(=O)(=O)[O-])[C@H]1C)c1csc(N)n1.[K+]` as the molecule, how does the Zone of inhibition [7] read?
The Zone of inhibition was 23 mm.

And the MIC [8]?
Its MIC is 0.125 µg/mL.

What about the Zone of inhibition [1] of the same molecule?
Its Zone of inhibition is 40 mm.

What about the Zone of inhibition [2] of the same molecule?
Its Zone of inhibition is 40 mm.

And the MIC [9]?
Its MIC is 0.25 µg/mL.

And the Zone of inhibition [10]?
Its Zone of inhibition is 46 mm.

And the MIC [11]?
Its MIC is 0.25 µg/mL.

And the Zone of inhibition [3]?
Its Zone of inhibition is 54 mm.

And the Zone of inhibition [12]?
The Zone of inhibition was 40 mm.

What about the Zone of inhibition [13] of the same molecule?
Its Zone of inhibition is 30 mm.

And the MIC [14]?
Its MIC is 0.25 µg/mL.

What about the MIC [15] of the same molecule?
The MIC was 0.03 µg/mL.

And the MIC [16]?
Its MIC is 4 µg/mL.

And the MIC [17]?
Its MIC is 4 µg/mL.

What about the Zone of inhibition [18] of the same molecule?
Its Zone of inhibition is 66 mm.

What about the Zone of inhibition [19] of the same molecule?
Its Zone of inhibition is 25 mm.

What about the Zone of inhibition [4] of the same molecule?
Its Zone of inhibition is 48 mm.

What about the MIC [20] of the same molecule?
Its MIC is > 64 µg/mL.

And the MIC [21]?
The MIC was 0.125 µg/mL.

What about the MIC [22] of the same molecule?
The MIC was 0.125 µg/mL.

And the MIC [23]?
Its MIC is 0.125 µg/mL.

And the MIC [24]?
The MIC was > 64 µg/mL.

What about the MIC [25] of the same molecule?
Its MIC is 0.03 µg/mL.

What about the MIC [26] of the same molecule?
Its MIC is > 64 µg/mL.

What about the Zone of inhibition [27] of the same molecule?
Its Zone of inhibition is 40 mm.

What about the Zone of inhibition [28] of the same molecule?
Its Zone of inhibition is 25 mm.

What about the Zone of inhibition [29] of the same molecule?
The Zone of inhibition was 27 mm.

What about the Zone of inhibition [30] of the same molecule?
The Zone of inhibition was 40 mm.

And the MIC [31]?
Its MIC is 0.25 µg/mL.

And the Zone of inhibition [32]?
The Zone of inhibition was 15 mm.

What about the MIC [33] of the same molecule?
The MIC was 0.125 µg/mL.

And the MIC [34]?
The MIC was 0.25 µg/mL.

And the MIC [35]?
Its MIC is 0.06 µg/mL.

What about the MIC [36] of the same molecule?
The MIC was 4 µg/mL.

And the MIC [37]?
Its MIC is 0.125 µg/mL.

And the MIC [38]?
Its MIC is > 64 µg/mL.

What about the MIC [39] of the same molecule?
Its MIC is 0.06 µg/mL.

And the Zone of inhibition [40]?
Its Zone of inhibition is 16 mm.

What about the MIC [41] of the same molecule?
The MIC was > 64 µg/mL.

And the Zone of inhibition [5]?
Its Zone of inhibition is 40 mm.

And the MIC [42]?
Its MIC is 0.06 µg/mL.

And the Zone of inhibition [43]?
The Zone of inhibition was 54 mm.

What about the Zone of inhibition [44] of the same molecule?
The Zone of inhibition was 29 mm.

What about the Zone of inhibition [45] of the same molecule?
Its Zone of inhibition is 22 mm.

What about the MIC [46] of the same molecule?
Its MIC is > 64 µg/mL.

What about the Zone of inhibition [47] of the same molecule?
Its Zone of inhibition is 30 mm.

And the MIC [48]?
Its MIC is 0.5 µg/mL.

And the Zone of inhibition [49]?
Its Zone of inhibition is 25 mm.

What about the Zone of inhibition [6] of the same molecule?
The Zone of inhibition was 33 mm.

And the MIC [50]?
The MIC was 0.125 µg/mL.

And the Zone of inhibition [51]?
Its Zone of inhibition is 36 mm.

Which results are given for `CO/N=C(/C(=O)N[C@H]1CN(OCC(=O)[O-])C1=O)c1csc(N)n1.[K+]`?
MIC [8]: 8 µg/mL; MIC [9]: 16 µg/mL; Zone of inhibition [10]: 21 mm; MIC [11]: 16 µg/mL; Zone of inhibition [12]: 20 mm; Zone of inhibition [13]: 13 mm; MIC [14]: 32 µg/mL; MIC [15]: 2 µg/mL; MIC [16]: 16 µg/mL; MIC [17]: 32 µg/mL; Zone of inhibition [18]: 37 mm; MIC [20]: > 64 µg/mL; MIC [21]: 8 µg/mL; MIC [22]: 8 µg/mL; MIC [23]: 32 µg/mL; MIC [24]: > 64 µg/mL; MIC [25]: 2 µg/mL; MIC [26]: > 64 µg/mL; Zone of inhibition [27]: 16 mm; Zone of inhibition [29]: 21 mm; Zone of inhibition [30]: 16 mm; MIC [31]: 16 µg/mL; MIC [33]: 8 µg/mL; MIC [34]: 16 µg/mL; MIC [35]: 4 µg/mL; MIC [36]: > 64 µg/mL; MIC [37]: 16 µg/mL; MIC [38]: > 64 µg/mL; MIC [39]: 4 µg/mL; MIC [41]: > 64 µg/mL; MIC [42]: 8 µg/mL; Zone of inhibition [43]: 19 mm; MIC [46]: > 64 µg/mL; Zone of inhibition [47]: 24 mm; MIC [48]: 16 µg/mL; MIC [50]: 8 µg/mL; Zone of inhibition [51]: 22 mm
